Reference: publication PMC8338929, “Acetylation turns leucine into a drug by membrane transporter switching” (Scientific Reports, 2021)

Legend:
LAT1 = details: read-out: Km LAT1; quoted in discussion, no reference given; cited from earlier work
[1] = N-acetyl-leucine metabolism in pooled human liver S9 fraction (LC-MS); assay type: in vitro ADME; details: 1 µM initial concentration, 0-60 min
Experimental: (§3) V0 = Vmax. [S]/Km + [S], where V0 is initial velocity, [S] is substrate concentration, Vmax is maximum velocity and Km is substrate concentration at half Vmax. All fitting was performed using GraphPad Prism 8.4 software (GraphPad Software Inc). No weighting scheme was applied.

[2] = N-acetyl-leucine metabolism in pooled mouse liver S9 fraction (LC-MS); assay type: in vitro ADME; details: 1 µM initial concentration, 0-60 min
Experimental: as §3

human MCT1 (SLC16A1) [3] = target: T1, human MCT1 (SLC16A1) (Homo sapiens, UniProt P53985); assay: MCT1-mediated cellular uptake in transfected MDCK-II cells; assay type: cell-based; details: 1 min, room temperature, Michaelis-Menten fit
T1 construct: host or cells: MDCK-II
T1 sequence (P53985 1-500): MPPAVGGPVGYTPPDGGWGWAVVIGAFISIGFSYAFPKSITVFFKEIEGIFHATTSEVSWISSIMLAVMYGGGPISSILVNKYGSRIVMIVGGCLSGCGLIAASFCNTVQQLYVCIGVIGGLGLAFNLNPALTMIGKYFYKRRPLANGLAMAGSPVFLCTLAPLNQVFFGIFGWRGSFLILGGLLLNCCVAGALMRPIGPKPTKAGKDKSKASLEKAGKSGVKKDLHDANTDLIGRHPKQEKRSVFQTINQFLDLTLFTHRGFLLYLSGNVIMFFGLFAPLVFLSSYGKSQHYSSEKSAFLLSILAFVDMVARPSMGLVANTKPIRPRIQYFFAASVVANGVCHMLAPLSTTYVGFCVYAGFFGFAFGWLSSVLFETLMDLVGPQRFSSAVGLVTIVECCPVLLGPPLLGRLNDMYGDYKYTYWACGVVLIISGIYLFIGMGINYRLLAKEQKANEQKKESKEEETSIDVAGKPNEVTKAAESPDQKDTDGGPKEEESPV
Experimental: (§1) Transport studies with human PepT1 (SLC15A1), LAT1 (SLC7A5) and MCT1 (SLC16A1) were conducted in MDCK-II cells expressing the human transporter or control cells expressing a vector with Green Fluorescence Protein. Cells were transfected using a proprietary, transient transfection system (OPTI-EXPRESSION Technology, BioIVT). The results from the control cells were used to correct for substrate permeation by routes other than the transporter being investigated in the study. […] Specifically, Net Transporter Mediated Substrate Uptake (pmol/min/cm^2) = (Cellular accumulation in the presence of the transporter) − (Mean cellular accumulation in the absence of the transporter). MDCK-II cells were maintained in DMEM with low glucose and 10% FBS. Cells were used at passages up to 40 were seeded at 60,000 ± 10,000 cells/well on 96-well plates approximately 24 h before transfection, and transport assays were performed approximately 48 h after transfection. Transport studies in MDCK-II cells were conducted in 96-well insert plates with permeable membrane (0.4 µm) and receiver tray (Millipore MultiScreen Filter 96-well).
(§2) Transport studies with PepT1 were conducted in 96-well cell culture plate with wells containing a monolayer of MDCK-II cells grown on a permeable support and a corresponding 96-well receiver tray. Cell plates are maintained at 37 °C in 5% CO2 atmosphere prior to initiation of the transport experiment. Pre-incubation was conducted in HBSS, pH 7.4. The transport experiments were conducted in HBSS with Bis–Tris, pH 5.5, without phenol red. Both pre-incubation and incubation were conducted at 37 °C. All final assay solutions of probe substrate, reference inhibitor or test article contain 0.5% (v/v) DMSO (vehicle control). The culture plate insert […] was washed with warm HBSS three times and then blotted dry. The culture plate wells […] were washed with warm HBSS three times. […] Then a 30-µL sample was taken and mixed with 200 µL of scintillation fluid and scintillation counted (1450 Microbeta, Perkin-Elmer). […]

human MCT1 (SLC16A1) [4] = target: T1, human MCT1 (SLC16A1); assay: Inhibition of MCT1 uptake of probe substrate 2-thiophene glyoxylate in MDCK-II cells; assay type: cell-based
Experimental: as §1
as §2, with “times. 100 µL of 37 °C HBSS pH 7.4 pre-incubation buffer to the apical compartment as follows: for the probe substrate transport assay, the HBSS contains vehicle; for the reference inhibition assay, the HBSS contains the reference inhibitor at the required concentration; for the test article assays, the HBSS in each well contains test compound at the specified concentration. The plates were incubated at 37 °C with orbital shaking at approximately 60 rpm for the pre-incubation (30 min), aspirated and then 100 µL of the experimental buffer was added.” for “times.”

[5] = substrate: CC(=O)N[C@@H](CC(C)C)C(=O)O; assay: cells, lysate or membranes; details: Michaelis-Menten fit

Q: For `CC(C)C[C@H](N)C(=O)O` [L-leucine], which Km (LAT1) is on record?
A: 200 µM

Q: With `[2H]C([2H])([2H])C([2H])(C([2H])([2H])[2H])C([2H])([2H])C([2H])(NC(C)=O)C(=O)O` (racemic) [N-acetyl-DL-[^2H10]leucine] as the molecule, how does the “disappearance: asymptote as % of the initial concentration, human liver S9” value [1] read?
A: ~50%

Q: What about the “disappearance: asymptote as % of the initial concentration, mouse liver S9” value [2] of the same molecule?
A: ~50%

Q: Which Km (human MCT1 (SLC16A1) [3]) does the source give for `CC(=O)N[C@H](CC(C)C)C(=O)O` [N-acetyl-D-leucine] here?
A: 1000 µM

Q: And the “Vmax MCT1 uptake” value (human MCT1 (SLC16A1) [3])?
A: 80

Q: What about the Ki (human MCT1 (SLC16A1) [4]; Cheng-Prusoff equation from IC50, competitive inhibition assumed, read-out: affinity (Ki) MCT1) of the same molecule?
A: 1.6 mM

Q: What about the IC50 (human MCT1 (SLC16A1) [4]; probe 2-thiophene glyoxylate 500 µM, positive control phloretin 500 µM) of the same molecule?
A: 11 mM

B1: human MCT1 (SLC16A1) (Homo sapiens) (protein)
chain: T1 sequence (P53985 1-500)
Q: Which Km ([5]; other: MDCK-II cells, 1 min, room temperature) does the source give for B1 here?
A: 3000 µM

B2: Human OAT1 (SLC22A6) (Homo sapiens) (protein)
chain: MAFNDLLQQVGGVGRFQQIQVTLVVLPLLLMASHNTLQNFTAAIPTHHCRPPADANLSKNGGLEVWLPRDRQGQPESCLRFTSPQWGLPFLNGTEANGTGATEPCTDGWIYDNSTFPSTIVTEWDLVCSHRALRQLAQSLYMVGVLLGAMVFGYLADRLGRRKVLILNYLQTAVSGTCAAFAPNFPIYCAFRLLSGMALAGISLNCMTLNVEWMPIHTRACVGTLIGYVYSLGQFLLAGVAYAVPHWRHLQLLVSAPFFAFFIYSWFFIESARWHSSSGRLDLTLRALQRVARINGKREEGAKLSMEVLRASLQKELTMGKGQASAMELLRCPTLRHLFLCLSMLWFATSFAYYGLVMDLQGFGVSIYLIQVIFGAVDLPAKLVGFLVINSLGRRPAQMAALLLAGICILLNGVIPQDQSIVRTSLAVLGKGCLAASFNCIFLYTGELYPTMIRQTGMGMGSTMARVGSIVSPLVSMTAELYPSMPLFIYGAVPVAASAVTVLLPETLGQPLPDTVQDLESRWAPTQKEAGIYPRKGKQTRQQQEHQKYMVPLQASAQEKNGL
Q: With B2 as the molecule, how does the Km ([5]; other: HEK-293 cells, pH 7.4) read?
A: 11000 µM

B3: Human OAT3 (SLC22A8) (Homo sapiens) (protein)
chain: MTFSEILDRVGSMGHFQFLHVAILGLPILNMANHNLLQIFTAATPVHHCRPPHNASTGPWVLPMGPNGKPERCLRFVHPPNASLPNDTQRAMEPCLDGWVYNSTKDSIVTEWDLVCNSNKLKEMAQSIFMAGILIGGLVLGDLSDRFGRRPILTCSYLLLAASGSGAAFSPTFPIYMVFRFLCGFGISGITLSTVILNVEWVPTRMRAIMSTALGYCYTFGQFILPGLAYAIPQWRWLQLTVSIPFFVFFLSSWWTPESIRWLVLSGKSSKALKILRRVAVFNGKKEEGERLSLEELKLNLQKEISLAKAKYTASDLFRIPMLRRMTFCLSLAWFATGFAYYSLAMGVEEFGVNLYILQIIFGGVDVPAKFITILSLSYLGRHTTQAAALLLAGGAILALTFVPLDLQTVRTVLAVFGKGCLSSSFSCLFLYTSELYPTVIRQTGMGVSNLWTRVGSMVSPLVKITGEVQPFIPNIIYGITALLGGSAALFLPETLNQPLPETIEDLENWSLRAKKPKQEPEVEKASQRIPLQPHGPGLGSS
Q: Which Km ([5]; other: HEK-293 cells, pH 7.4) does the source give for B3 here?
A: 7800 µM
